Reference: patent publication US9302999B2, “Substituted triazoles as herbicides” (E. I. DU PONT DE NEMOURS AND COMPANY, priority 2012, dated 2016)

What was measured:
Assay type in all cases: in vivo
[1] = test system: nutsedge, yellow (yellow nutsedge, Cyperus esculentus); assay: Test F pre-/postemergence: nutsedge, yellow; conditions: Preemergence
Source text: (§1) Seeds of plant species selected from corn (Zea mays), soybean (Glycine max), velvetleaf (Abutilon theophrasti), lambsquarters (Chenopodium album), poinsettia, wild (wild poinsettia, Euphorbia heterophylla), pigweed, palmer (palmer pigweed, Amaranthus palmeri), waterhemp (common waterhemp, Amaranthus rudis), surinam grass (Brachiaria decumbens), crabgrass, Brazil (Brazilian crabgrass, Digitaria horizontalis), panicum, fall (fall panicum Panicum dichotomiflorum), crabgrass, large (large crabgrass, Digitaria sanguinalis), foxtail, giant (giant foxtail, Setaria faberii), foxtail, green (green foxtail Setaria viridis), goosegrass (Eleusine indica), ragweed (common ragweed, Ambrosia elatior), barnyardgrass (Echinochloa crus-galli), sandbur (southern sandbur, Cenchrus echinatus), arrowleaf sida (Sida rhombifolia), ryegrass, Italian (Italian ryegrass, Lolium multiflorum), dayflower, VA (Virginia (VA) dayflower, Commelina virginica), field bindweed (Convolvulus arvensis), cocklebur (common cocklebur, Xanthium strumarium), morningglory (Ipomoea coccinea), nightshade (eastern black nightshade, Solanum ptycanthum), kochia (Kochia scoparia), nutsedge, yellow (yellow nutsedge, Cyperus esculentus), johnsongrass (Sorghum halepense), smartweed (ladysthumb smartweed, Polygonum persicaria), and beggarticks (hairy beggarticks, Bidens pilosa), were planted into a silt loam soil and treated preemergence with test chemicals formulated in a non-phytotoxic solvent mixture which included a surfactant. At the same time, plants selected from these crop and weed species and also pigweed (Amaranthus retroflexus), waterhemp_RES1 (ALS/Triazine resistant common waterhemp, Amaranthus rudis) and waterhemp_RES2 (ALS/HPPD resistant common waterhemp, Amaranthus rudis) were planted in pots containing a planting medium comprising spaghnum peat moss, vermiculite, wetting agent and starter nutrients treated with postemergence applications of some of the test chemicals formulated in the same manner. Plants ranged in height from 2 to 18 cm for postemergence treatments (1- to 4-leaf stage).
(§2) Treated plants and controls were maintained in a greenhouse for 14 to 21 days, after which time all species were compared to controls and visually evaluated. Plant response ratings, summarized in Table E, are based on a scale of 0 to 100 where 0 is no effect and 100 is complete control. A dash (-) response means no test result.

[2] = test system: corn (Zea mays); assay: Test F pre-/postemergence: corn
Source text: as §1, §2

[3] = test system: mustard, wild (wild mustard, Sinapis arvensis); assay: Test D pre-/postemergence: mustard, wild
Method in brief: (§3)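 Visual 0–100 rating versus untreated controls (0 no effect, 100 complete control), taken 14 to 21 days after treatment in a controlled growth environment. Preemergence: silt loam soil. Postemergence: peat moss/vermiculite medium, plants 2 to 18 cm, 1- to 4-leaf stage. Solvent mixture with surfactant.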

[4] = test system: oilseed rape (Brassica napus); assay: Test D pre-/postemergence: oilseed rape
Method in brief: as §3

[5] = test system: oat, wild (wild oat, Avena fatua); assay: Test D pre-/postemergence: oat, wild
Method in brief: as §3

[6] = test system: bluegrass (annual bluegrass, Poa annua); assay: Test D pre-/postemergence: bluegrass
Method in brief: as §3

[7] = test system: ryegrass, Italian (Italian ryegrass, Lolium multiflorum); assay: Test F pre-/postemergence: ryegrass, Italian
Source text: as §1, §2

[8] = test system: blackgrass (Alopecurus myosuroides); assay: Test D pre-/postemergence: blackgrass
Method in brief: as §3

[9] = test system: foxtail, green (green foxtail, Setaria viridis); assay: Test D pre-/postemergence: foxtail, green
Method in brief: as §3

[10] = 16 g ai/ha, scale 0 to 100, 0 no effect, 100 complete control
[11] = 31 g ai/ha, scale 0 to 100, 0 no effect, 100 complete control
[12] = Postemergence, 8 g ai/ha, scale 0 to 100
[13] = Postemergence, 16 g ai/ha, scale 0 to 100
[14] = Postemergence, 31 g ai/ha, scale 0 to 100
[15] = Postemergence, 62 g ai/ha, scale 0 to 100
[16] = Postemergence, 125 g ai/ha, scale 0 to 100
[17] = Preemergence, 8 g ai/ha, scale 0 to 100, 0 no effect, 100 complete control
[18] = Preemergence, 16 g ai/ha, scale 0 to 100, 0 no effect, 100 complete control
[19] = Preemergence, 31 g ai/ha, scale 0 to 100, 0 no effect, 100 complete control
[20] = Preemergence, 62 g ai/ha, scale 0 to 100
[21] = Preemergence, 125 g ai/ha, scale 0 to 100
[22] = Postemergence, 31 g ai/ha, scale 0 to 100 (0 no effect, 100 complete control)
[23] = Postemergence, 62 g ai/ha, scale 0 to 100 (0 no effect, 100 complete control)
[24] = Postemergence, 125 g ai/ha, scale 0 to 100, 0 no effect, 100 complete control
[25] = Preemergence, 250 g ai/ha, scale 0 to 100
[26] = Postemergence, 250 g ai/ha, scale 0 to 100

Structure (SMILES): CCOc1nn(-c2ccc(F)cc2)nc1Cc1ccnc(C(F)(F)F)c1 [Compound 196, 4-[[5-ethoxy-2-(4-fluorophenyl)-2H-1,2,3-triazol-4-yl]methyl]-2-(trifluoromethyl)pyridine]
- Plant response rating, Nutsedge, Yellow ([1]; 8 g ai/ha, scale 0 to 100, 0 no effect, 100 complete control): 0
- Plant response rating, Nutsedge, Yellow [1, 10]: 0
- Plant response rating, Nutsedge, Yellow [1, 11]: 0
- Plant response rating, Nutsedge, Yellow ([1]; 125 g ai/ha, scale 0 to 100): 75
- Plant response rating, Corn [2, 12]: 15
- Plant response rating, Corn [2, 13]: 15
- Plant response rating, Corn [2, 14]: 20
- Plant response rating, Corn [2, 15]: 20
- Plant response rating, Corn [2, 16]: 25
- Plant response rating, Corn [2, 17]: 0
- Plant response rating, Corn [2, 18]: 0
- Plant response rating, Corn [2, 19]: 0
- Plant response rating, Corn [2, 20]: 5
- Plant response rating, Corn [2, 21]: 30
- Plant response rating: Mustard, Wild [3, 22]: 100
- Plant response rating: Mustard, Wild [3, 23]: 100
- Plant response rating: Mustard, Wild [3, 24]: 100
- Plant response rating, Mustard, Wild [3, 13]: 100
- Plant response rating, Mustard, Wild [3, 18]: 35
- Plant response rating, Mustard, Wild [3, 19]: 95
- Plant response rating, Mustard, Wild [3, 20]: 100
- Plant response rating, Mustard, Wild [3, 21]: 100
- Plant response rating: Oilseed Rape [4, 22]: 100
- Plant response rating: Oilseed Rape [4, 23]: 100
- Plant response rating: Oilseed Rape [4, 24]: 100
- Plant response rating, Oilseed Rape [4, 13]: 80
- Plant response rating, Oilseed Rape [4, 18]: 5
- Plant response rating, Oilseed Rape [4, 19]: 15
- Plant response rating, Oilseed Rape [4, 20]: 100
- Plant response rating, Oilseed Rape [4, 21]: 100
- Plant response rating: Oat, Wild [5, 22]: 50
- Plant response rating: Oat, Wild [5, 23]: 45
- Plant response rating: Oat, Wild [5, 24]: 70
- Plant response rating, Oat, Wild [5, 13]: 15
- Plant response rating, Oat, Wild [5, 18]: 25
- Plant response rating, Oat, Wild [5, 19]: 30
- Plant response rating, Oat, Wild [5, 20]: 75
- Plant response rating, Oat, Wild [5, 21]: 100
- Plant response rating: Bluegrass [6, 22]: 70
- Plant response rating: Bluegrass [6, 23]: 75
- Plant response rating: Bluegrass [6, 24]: 80
- Plant response rating, Bluegrass [6, 13]: 60
- Plant response rating, Bluegrass [6, 18]: 5
- Plant response rating, Bluegrass [6, 19]: 35
- Plant response rating, Bluegrass [6, 20]: 75
- Plant response rating, Bluegrass [6, 21]: 100
- Plant response rating, Ryegrass, Italian [7, 12]: 15
- Plant response rating, Ryegrass, Italian [7, 13]: 20
- Plant response rating, Ryegrass, Italian [7, 14]: 40
- Plant response rating, Ryegrass, Italian [7, 15]: 70
- Plant response rating, Ryegrass, Italian [7, 16]: 80
- Plant response rating, Ryegrass, Italian [7, 17]: 0
- Plant response rating, Ryegrass, Italian [7, 18]: 40
- Plant response rating, Ryegrass, Italian [7, 19]: 75
- Plant response rating, Ryegrass, Italian [7, 21]: 100
- Plant response rating: Blackgrass [8, 22]: 65
- Plant response rating: Blackgrass [8, 23]: 85
- Plant response rating: Blackgrass [8, 24]: 80
- Plant response rating, Blackgrass [8, 13]: 15
- Plant response rating, Blackgrass [8, 18]: 10
- Plant response rating, Blackgrass [8, 19]: 20
- Plant response rating, Blackgrass [8, 20]: 100
- Plant response rating, Blackgrass [8, 21]: 100
- Plant response rating: Foxtail, Green [9, 22]: 80
- Plant response rating: Foxtail, Green [9, 23]: 85
- Plant response rating: Foxtail, Green [9, 24]: 95
- Plant response rating, Foxtail, Green [9, 13]: 55
- Plant response rating, Foxtail, Green [9, 18]: 60
- Plant response rating, Foxtail, Green [9, 19]: 60
- Plant response rating, Foxtail, Green [9, 20]: 75
- Plant response rating, Foxtail, Green [9, 21]: 100

Structure (SMILES): CCc1nn(-c2ccc(F)c(F)c2)nc1Oc1ccnc(C(F)(F)F)c1 [Compound 171]
- Plant response rating, Nutsedge, Yellow [1, 10]: 0
- Plant response rating, Nutsedge, Yellow [1, 11]: 0
- Plant response rating, Nutsedge, Yellow ([1]; 125 g ai/ha, scale 0 to 100): 0
- Plant response rating, Nutsedge, Yellow ([1]; 250 g ai/ha, scale 0 to 100): 0
- Plant response rating, Corn [2, 18]: 0
- Plant response rating, Corn [2, 19]: 0
- Plant response rating, Corn [2, 20]: 0
- Plant response rating, Corn [2, 21]: 0
- Plant response rating, Corn [2, 25]: 5
- Plant response rating, Ryegrass, Italian [7, 18]: 0
- Plant response rating, Ryegrass, Italian [7, 19]: 0
- Plant response rating, Ryegrass, Italian [7, 21]: 25
- Plant response rating, Ryegrass, Italian [7, 25]: 50

Structure (SMILES): CCc1nn(-c2ccc(C(F)(F)F)cc2)nc1Oc1ccnc(C(F)(F)F)c1 [Compound 169]
- Plant response rating, Nutsedge, Yellow [1, 10]: 0
- Plant response rating, Nutsedge, Yellow [1, 11]: 20
- Plant response rating, Nutsedge, Yellow ([1]; 125 g ai/ha, scale 0 to 100): 25
- Plant response rating, Nutsedge, Yellow ([1]; 250 g ai/ha, scale 0 to 100): 25
- Plant response rating, Corn [2, 26]: 10
- Plant response rating, Corn [2, 13]: 5
- Plant response rating, Corn [2, 14]: 5
- Plant response rating, Corn [2, 15]: 10
- Plant response rating, Corn [2, 16]: 10
- Plant response rating, Corn [2, 18]: 0
- Plant response rating, Corn [2, 19]: 0
- Plant response rating, Corn [2, 20]: 0
- Plant response rating, Corn [2, 21]: 0
- Plant response rating, Corn [2, 25]: 0
- Plant response rating, Ryegrass, Italian [7, 26]: 30
- Plant response rating, Ryegrass, Italian [7, 13]: 0
- Plant response rating, Ryegrass, Italian [7, 14]: 0
- Plant response rating, Ryegrass, Italian [7, 15]: 20
- Plant response rating, Ryegrass, Italian [7, 16]: 20
- Plant response rating, Ryegrass, Italian [7, 18]: 0
- Plant response rating, Ryegrass, Italian [7, 19]: 0
- Plant response rating, Ryegrass, Italian [7, 21]: 100
- Plant response rating, Ryegrass, Italian [7, 25]: 100

Structure (SMILES): CCCc1nn(-c2ccc(F)c(F)c2)nc1Oc1ccnc(C(F)(F)F)c1 [Compound 172]
- Plant response rating, Nutsedge, Yellow [1, 11]: 25
- Plant response rating, Nutsedge, Yellow ([1]; 125 g ai/ha, scale 0 to 100): 25
- Plant response rating, Nutsedge, Yellow ([1]; 250 g ai/ha, scale 0 to 100): 25
- Plant response rating, Corn [2, 26]: 30
- Plant response rating, Corn [2, 14]: 15
- Plant response rating, Corn [2, 16]: 20
- Plant response rating, Corn [2, 19]: 0
- Plant response rating, Corn [2, 21]: 15
- Plant response rating, Corn [2, 25]: 15
- Plant response rating, Ryegrass, Italian [7, 26]: 50
- Plant response rating, Ryegrass, Italian [7, 14]: 20
- Plant response rating, Ryegrass, Italian [7, 16]: 40
- Plant response rating, Ryegrass, Italian [7, 19]: 35
- Plant response rating, Ryegrass, Italian [7, 21]: 100
- Plant response rating, Ryegrass, Italian [7, 25]: 100
